Where a SMILES comes first, the peptide text is derived from it. The star is where a group is joined. Cbz = O=C(OCc1ccccc1)*
Test system: MDA-7 protein in 2008/C*13 R cells
Test: Western blotting of MDA-7 protein expression
Type: cell-based, human
Details: 48 h, vs Ad-mda7 alone
Method: FIG. 4. MDA-7 protein expression is increased in CDDP-Resistant Ovarian tumor cells in a time-dependent and dose-dependent manner. FIG. 4A, Ovarian tumor cells (2008 and 2008/C*13 R) seeded in six-well plates were treated with PBS, Ad-luc or Ad-mda7 (3000 vp/cell). Cells were harvested on day 1 and day 2 after treatment and analyzed for MDA-7 protein expression by western blotting. […] Beta-actin was used as an internal loading control. FIG. 4B, Ovarian tumor cells (2008 and 2008/C*13 R) seeded in six-well plates were treated with different doses of Ad-mda7 (1000, 3000, 5000 or 7500 vp/cell). Untreated cells served as control. Cells were harvested on day 2 after treatment and analyzed for MDA-7 protein expression by western blotting. […] Beta-actin was used as an internal loading control. […] However, MDA-7 protein was higher in the supernatant of Ad-mda7-treated 2008/C*13 R cells compared to Ad-mda7-treated 2008 cells.
FIG. 11. […]
MDA-7 Protein Expression is Increased in CDDP-Resistant Ovarian Tumor Cells in a Time-dependent and Dose-Dependent Manner. […] Cells were harvested on day 1 and day 2 after treatment and analyzed for MDA-7 protein expression by western blotting. […] Cells were harvested on day 2 after treatment and analyzed for MDA-7 protein expression by western blotting. […]

Compound: CC(C)C[C@@H](C=O)NC(=O)[C@H](CC(C)C)NC(=O)[C@H](CC(C)C)NC(=O)OCc1ccccc1 [MG132] (Cbz-Leu-Leu-Leu-aldehyde)
- MDA-7 protein expression with proteasome inhibitor: significantly increased

— US20090004145A1, “COMPOSITIONS AND METHODS INVOLVING GENE THERAPY AND PROTEASOME MODULATION” (priority 2006, published 2009)
